Tests used:
Assay in all cases: relative viability (nuclei count vs DMSO), 5 days (fraction); higher = more cells survive
[1] = compound: COc1cc2c(Oc3ccc4[nH]c(C)cc4c3F)ncnc2cc1OCCCN1CCCC1 [Cediranib] + Nc1nc2[nH]cc(CCc3ccc(C(=O)N[C@@H](CCC(=O)O)C(=O)O)cc3)c2c(=O)[nH]1 [Pemetrexed] (partner 0.2 µM)
Outline: (§1)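 For relative viability, nuclei counts in treated wells were divided by those in vehicle wells. Lung cancer cell lines had been pin-tool dosed in 1536-well plates the day after seeding and cultured for 5 days, then fixed and stained in one step (final 0.05% Triton X-100, 1% formaldehyde, 1 ug/ml Hoechst) and imaged at 4×. Doses were one drug alone or a fixed anchor-drug dose plus five library-drug doses (not always all listed) in √10 steps, and values are duplicate-plate medians.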

[2] = compound: COc1cc2c(Oc3ccc4[nH]c(C)cc4c3F)ncnc2cc1OCCCN1CCCC1 [Cediranib] + CCNC(=O)c1noc(-c2cc(C(C)C)c(O)cc2O)c1-c1ccc(CN2CCOCC2)cc1 [Luminespib] (partner 0.01 µM)
Outline: as §1

[3] = compound: O=C(C[C@H]1NCCC[C@@H]1O)Cn1cnc2cc(Br)c(Cl)cc2c1=O (racemic) [Halofuginone] + O=C(CCCCCCC(=O)Nc1ccccc1)NO [Vorinostat] (partner 1 µM)
Outline: as §1

[4] = compound: COc1cc2c(Oc3ccc4[nH]c(C)cc4c3F)ncnc2cc1OCCCN1CCCC1 [Cediranib] + CC1(C)CCC(c2ccc(Cl)cc2)=C(CN2CCN(c3ccc(C(=O)NS(=O)(=O)c4ccc(N[C@H](CCN5CCOCC5)CSc5ccccc5)c(S(=O)(=O)C(F)(F)F)c4)cc3)CC2)C1 [Navitoclax] (partner 0.5 µM)
Outline: as §1

## UMC-11
[1]; first compound 0.04 µM
  relative viability: 0.848
[1]; first compound 0.1265 µM
  relative viability: 0.752
[1]; first compound 0.4 µM
  relative viability: 0.738
[1]; first compound 1.265 µM
  relative viability: 0.824
[1]; first compound 4 µM
  relative viability: 0.764
[2]; first compound 0.04 µM
  relative viability: 1.14
[2]; first compound 0.4 µM
  relative viability: 1.04
[2]; first compound 4 µM
  relative viability: 0.903
[3]; first compound 0.001 µM
  relative viability: 0.428
[3]; first compound 0.003162 µM
  relative viability: 0.381
[3]; first compound 0.01 µM
  relative viability: 0.348
[3]; first compound 0.03162 µM
  relative viability: 0.334
[3]; first compound 0.1 µM
  relative viability: 0.205
[4]; first compound 0.04 µM
  relative viability: 0.328
[4]; first compound 0.1265 µM
  relative viability: 0.293
[4]; first compound 0.4 µM
  relative viability: 0.322
[4]; first compound 1.265 µM
  relative viability: 0.321
[4]; first compound 4 µM
  relative viability: 0.359

Reference: the supplement of paper PMC10307832
